Experimental data reported in patent US4148795A, “Dithiocarbamate ester bactericides and fungicides” (American Cyanamid Company, priority 1976, dated 1979).
Read-outs that look alike come from different tables or passages of the source.

What was measured:
[1] = tested on: Collectotrichum lagenarium; assay: Agar dilution plate; assay type: cell-based; details: Cl; 100 ppm, 72 hours at 23° C
Procedure, shortened: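 Compounds were incorporated at about 100 ppm in Sabouraud's dextrose agar, inoculated, and incubated about 72 h at 23 °C. Growth was scored 0 (no control) or 5 (100% effectiveness), and the test was repeated twice.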

Verticillium albo-atrum = assay: Agar dilution plate; assay type: cell-based; details: Va; 100 ppm, 72 hours at 23° C
Procedure, shortened: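 Compounds incorporated at about 100 ppm into Sabouraud's dextrose agar, then inoculated with the fungus and incubated about 72 hours at 23° C. Growth scored as 0 (no control) or 5 (100% effectiveness); test repeated twice.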

Aerobacter aerogenes = assay type: cell-based; details: 100 ppm; subcultures 72 hours at 37° C; further: key: 0: No Effect; 9: Kill of Bacteria; 5: Stasis, but not Kill of all Bacteria
Pseudomonas solaracaerum = assay type: cell-based; details: 100 ppm, 72 hours at 23° C
Monilinia fructicola [2] = assay: Spore germination inhibition; assay type: cell-based
Procedure, shortened: (§1)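 Test compounds were suspended in water at 100, 10 or 1 ppm and inoculated with spore suspensions from 7-day (A. niger) or 14-day potato-dextrose agar cultures. Vials were tumbled for 24 hours and then examined for inhibition of mycelial growth.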

[3] = tested on: Stemphylium sarcinaeforme; assay: Spore germination inhibition; assay type: cell-based; details: Stemphylium sarciniforme
Procedure, shortened: as §1

Aspergillus niger [4] = assay: Spore germination inhibition; assay type: cell-based; details: 24 hours
Procedure, shortened: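 Test compound is suspended in water at 100, 10 or 1 ppm. and dispensed into one dram "opticlear" vials. Each vial receives one drop of a spore suspension taken from seven-day Aspergillus niger cultures grown on potato-dextrose agar. Capped vials rotate on a tumbler for 24 hours, then are inspected for inhibition of mycelial growth.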

Venturia inaequalis [5] = details: in vivo
Venturia inaequalis [6] = assay: Apple scab on field-grown trees; assay type: in vivo; details: 50% wettable powder
Description: Apple Scab (Venturia inaequalis)
(§2) The compound of Example 13 was applied as a foliar spray for ten applications at weekly intervals from May 1 through July 2, and then two more sprays on a two-week schedule ending on July 31.
(§3) The active compound was applied as a 50% wettable powder having the following composition:
50% Active Compound (Example 13 )
(§4) Rates of 50% wettable applied were:
(§5) 2 pounds/100 gallons of water
(§6) 1 pound/100 gallons of water
(§7) Three tree replicates of each rate
(§8) Variety: Red Delicious were used.

Xanthomonas vesicatoria = assay type: cell-based; details: 100 ppm; subcultures 72 hours at 37° C; further: key: 0: No Effect; 9: Kill of Bacteria; 5: Stasis, but not Kill of all Bacteria
Piricularia oryzae = assay type: in vivo; set-up: scale not given here; details: Rice Blast, five days
Fusarium lycopersici = assay: Agar dilution plate; assay type: cell-based; details: Fl; 100 ppm, 72 hours at 23° C
Procedure, shortened: (§9)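 Active ingredient is incorporated at about 100 ppm into Sabouraud's dextrose agar. The solidified plate is inoculated with the organism and incubated roughly 72 hours at 23° C. Growth is then rated 0 or 5, where 5 means 100% effectiveness.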

Rhizoctonia solani = assay: Agar dilution plate; assay type: cell-based; details: Rs; 100 ppm, 72 hours at 23° C
Procedure, shortened: as §9

Monilinia fructicola [7] = assay: Agar dilution plate; assay type: cell-based; details: Mf; 100 ppm, 72 hours at 23° C
Procedure, shortened: as §9

Pythium de Baryanum = assay: Agar dilution plate; assay type: cell-based; details: Pd; 100 ppm, 72 hours at 23° C
Procedure, shortened: as §9

Aspergillus niger [8] = assay: Agar dilution plate; assay type: cell-based; details: An; 100 ppm, 72 hours at 23° C
Procedure, shortened: as §9

[9] = tested on: Stemphylium sarcinaeforme; assay: Agar dilution plate; assay type: cell-based; details: Ss; 100 ppm, 72 hours at 23° C
Procedure, shortened: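 Compound incorporated into Sabouraud's dextrose agar at about 100 ppm, inoculated with Stemphylium sarcinaeforme and incubated about 72 hours at 23 °C. Growth scored 0 (no control) or 5 (100% effectiveness), test run in repeat.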

[10] = tested on: Colletotrichum lagenarium; details: in vivo; further: key: 5: clean, no disease; 4: trace of disease; 3: slight disease; 2: moderate disease; 1: severe disease; 0: like controls
[11] = tested on: Red Delicious apple trees; assay: Phytotoxicity on field-grown apple trees; assay type: in vivo; details: 50% wettable powder, 2 and 1 pounds/100 gallons of water
Description: as §2, §3, §4, §5, §6, §7, §8

Staphylococcus aureus = assay type: cell-based; details: 100 ppm; subcultures 72 hours at 37° C; further: key: 0: No Effect; 9: Kill of Bacteria; 5: Stasis, but not Kill of all Bacteria
Phytophthora infestans = assay type: in vivo; set-up: scale not given here; details: Tomato Late Blight, five days
[12] = 24 h, read-out: % Inhibition of Spore Germination

CN(C)C(=S)SC(C[N+](=O)[O-])c1ccccc1 (stereo not drawn) [Example 13, α-(Nitromethyl)benzyl Dimethyldithiocarbamate]
Agar Dilution Plate rating [1]: 5 (100% effectiveness of the test compound against the specified organism)
Agar Dilution Plate rating (Verticillium albo-atrum): 5 (100% effectiveness of the test compound against the specified organism)
Antibacterial Activity rating (Aerobacter aerogenes): 5
Agar Dilution Plate rating (Pseudomonas solaracaerum): 0
inhibition at 1 ppm (Monilinia fructicola [2]; 1 ppm, 24 hours): 100%
inhibition at 10 ppm (Monilinia fructicola [2]; 10 ppm, 24 hours): 100%
inhibition at 100 ppm (Monilinia fructicola [2]; [12]): 100%
inhibition at 100 ppm [3, 12]: 100%
inhibition at 1 ppm ([3]; 1 ppm, 24 hours): 100%
inhibition at 10 ppm ([3]; 10 ppm, 24 hours): 100%
inhibition at 1 ppm (Aspergillus niger [4]; 1 ppm): 100%
inhibition at 10 ppm (Aspergillus niger [4]; 10 ppm): 100%
inhibition at 100 ppm (Aspergillus niger [4]; 100 ppm): 100%
disease control index (Venturia inaequalis [5]): 5
scab on trees (Venturia inaequalis [6]; 1 pound/100 gallons of water, end of season): trace of scab
scab on trees (Venturia inaequalis [6]; 2 pounds/100 gallons of water, all season): free of scab all season long
Antibacterial Activity rating (Xanthomonas vesicatoria): 5
disease control index (Piricularia oryzae; 150 ppm): 5
disease control index (Piricularia oryzae; 300 ppm): 5
disease control index (Piricularia oryzae; 600 ppm): 5
disease control index (Piricularia oryzae; 1200 ppm): 5
Agar Dilution Plate rating (Fusarium lycopersici): 5 (100% effectiveness of the test compound against the specified organism)
Agar Dilution Plate rating (Rhizoctonia solani): 0
Agar Dilution Plate rating (Monilinia fructicola [7]): 5 (100% effectiveness of the test compound against the specified organism)
Agar Dilution Plate rating (Pythium de Baryanum): 5 (100% effectiveness of the test compound against the specified organism)
Agar Dilution Plate rating (Aspergillus niger [8]): 0
Agar Dilution Plate rating [9]: 5 (100% effectiveness of the test compound against the specified organism)
disease control index [10]: 5
phytotoxicity [11]: No phytotoxicity
Antibacterial Activity rating (Staphylococcus aureus): 5
disease control index (Phytophthora infestans; 150 ppm): 5
disease control index (Phytophthora infestans; 300 ppm): 5
disease control index (Phytophthora infestans; 600 ppm): 5
disease control index (Phytophthora infestans; 1200 ppm): 5
